Experimental data from ChEMBL document CHEMBL1155691, “Novel extracellular diterpenoids with biological activity from the cyanobacterium Nostoc commune” (2000).
Values after ≈ are worked out from the molar mass of the structure shown.

What was measured:
Format in all cases: functional
[1] = test system: Staphylococcus epidermidis; experiment: Antimicrobial activity against Staphylococcus epidermidis ATCC 12228
[2] = test system: Bacillus cereus; experiment: Antimicrobial activity against Bacillus cereus ATCC 10702
[3] = test system: Escherichia coli; experiment: Antimicrobial activity against Escherichia coli ATCC 25922
[4] = test system: Caco-2; experiment: Cytotoxicity against human Caco-2 cells
[5] = test system: KB; experiment: Cytotoxicity against human KB cells
[6] = test system: Biomphalaria glabrata; experiment: Antimolluscicidal activity against Biomphalaria glabrata

For `O=C(N[C@H](CO)[C@H](O)c1ccc([N+](=O)[O-])cc1)C(Cl)Cl` [CHLORAMPHENICOL], the MIC [1] was 4 µg/mL (≈ 12.4 µM) and the MIC [2] was 8 µg/mL (≈ 24.8 µM).
`C[C@@H]1CC[C@@]2(C)[C@@H](CC[C@]3(C)[C@@H]2CC[C@@]3(C)CO)[C@]1(C)Cc1cc(C(=O)O)ccc1O` [COMNASTIN A] showed an MIC [1] of 16 µg/mL (≈ 37.3 µM), an MIC [3] of 128 µg/mL (≈ 299 µM) and an MIC [2] of 32 µg/mL (≈ 74.7 µM).
For `C[C@@H]1CC[C@@]2(C)[C@@H](CC[C@]3(C)[C@@H]2CC[C@@]3(C)C=O)[C@]1(C)Cc1cc(C(=O)O)ccc1O` [COMNASTIN B], the MIC [1] was 16 µg/mL (≈ 37.5 µM), the MIC [4] was 0.18 µg/mL (≈ 0.422 µM) and the MIC [5] was 0.4 µg/mL (≈ 0.938 µM). The MIC [3] was 128 µg/mL (≈ 300 µM), the MIC [6] was 20 µg/mL (≈ 46.9 µM) and the MIC [2] was 32 µg/mL (≈ 75 µM).
For `C[C@@H]1CC[C@@]2(C)[C@@H](CC[C@]3(C)[C@@H]2CC[C@@]3(C)C(=O)O)[C@]1(C)Cc1cc(C(=O)O)ccc1O` [COMNASTIN C], the MIC [1] was 16 µg/mL (≈ 36.2 µM), the MIC [3] was 64 µg/mL (≈ 145 µM) and the MIC [2] was 32 µg/mL (≈ 72.3 µM).
Molecule `COC(OC)[C@]1(C)CC[C@@H]2[C@@]3(C)CC[C@@H](C)[C@@](C)(Cc4cc(C(=O)O)ccc4O)[C@@H]3CC[C@]21C` [COMNASTIN D] has an MIC [1] of 32 µg/mL (≈ 67.7 µM), an MIC [3] of 128 µg/mL (≈ 271 µM) and an MIC [2] of 16 µg/mL (≈ 33.9 µM).
`CC(=O)[C@@H]1CC[C@@H]2[C@@]3(C)CC[C@@H](C)[C@@](C)(Cc4cc(C(=O)O)ccc4O)[C@@H]3CC[C@]21C` [COMNASTIN E] gave an MIC [1] of 4 µg/mL (≈ 9.38 µM) and an MIC [2] of 128 µg/mL (≈ 300 µM).
Molecule `COc1cc([C@@H]2c3cc4c(cc3[C@H](O)[C@H]3COC(=O)[C@H]23)OCO4)cc(OC)c1OC` [PODOFILOX] has an MIC [4] of 0.02 µg/mL (≈ 0.0483 µM) and an MIC [5] of 0.01 µg/mL (≈ 0.0241 µM).
In the case of `CN(C)[C@@H]1C(O)=C(C(N)=O)C(=O)[C@@]2(O)C(O)=C3C(=O)c4c(O)cccc4[C@@](C)(O)[C@H]3C[C@@H]12` [TETRACYCLINE], the MIC [3] was 64 µg/mL (≈ 144 µM).
